In paper PMC6943527, “Are the Hydantoin-1,3,5-triazine 5-HT6R Ligands a Hope to a Find New Procognitive and Anti-Obesity Drug? Considerations Based on Primary In Vivo Assays and ADME-Tox Profile In Vitro” (Molecules, 2019):
Where “and” joins values, the source holds several entries; their conditions need not be identical. Identical values can stand only once. Entries after “also recorded” stand apart in the source; their conditions may differ.

Key:
D2 = target: D2; set-up: method as in PMID 30282913; settings: radioligand binding, average of at least two independent experiments; read-out: Ki D2 [3H]-Raclopride; cited from earlier work
CYP2D6 = target: T1, CYP2D6 (Homo sapiens, UniProt P10635); assay: CYP2D6 P450-Glo drug-drug interaction assay; assay type: in vitro ADME; settings: summary in comparison to SUVN-502
T1 construct: purchased Promega (Madison, WI, USA)
T1 sequence (P10635 whole entry): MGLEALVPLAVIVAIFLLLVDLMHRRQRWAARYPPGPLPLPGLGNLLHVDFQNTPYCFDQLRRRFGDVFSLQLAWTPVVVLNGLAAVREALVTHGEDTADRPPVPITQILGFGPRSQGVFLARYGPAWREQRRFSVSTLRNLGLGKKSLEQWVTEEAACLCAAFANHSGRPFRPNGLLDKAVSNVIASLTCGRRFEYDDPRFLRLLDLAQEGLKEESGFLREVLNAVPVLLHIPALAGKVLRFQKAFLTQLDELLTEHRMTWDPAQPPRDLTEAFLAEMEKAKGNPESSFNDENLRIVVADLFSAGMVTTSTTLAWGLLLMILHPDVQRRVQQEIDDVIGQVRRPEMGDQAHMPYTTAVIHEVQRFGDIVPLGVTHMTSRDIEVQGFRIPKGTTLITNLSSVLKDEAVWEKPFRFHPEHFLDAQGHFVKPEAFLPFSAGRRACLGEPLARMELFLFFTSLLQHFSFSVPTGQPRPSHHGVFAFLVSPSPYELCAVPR
Description: The influence of triazine derivatives on two the most involved in drug metabolism CYP (cytochrome P450) isoforms CYP3A4 and CYP2D6 was also investigated.
The study was performed using the CYP3A4 P450-Glo^TM and CYP2D6 P450-Glo^TM commercial tests provided by Promega (Madison, WI, USA). The influence of compounds on CYPs activity was tested in white polystyrene, flat-bottom Nunc^TM MicroWell^TM 96-well microplates (Thermo Scientific, Waltham, MA USA), and the bioluminescence signal was measured with a microplate reader (EnSpire) in luminescence mode, as described previously. KMP-10 and DJ-18 were tested in triplicate in the range of 0.01–25 µM for both isoforms’ P450 cytochrome. KE and QD were used as the reference compounds for CYP3A4 and CYP2D6, respectively.

[1] = set-up: method as in PMID 30530073; settings: QikProp, Schrödinger Suite; cited from earlier work
[2] = Metabolic stability and metabolic pathways in human liver microsomes
Description: The pharmacokinetic parameters of compounds were estimated by using human liver microsomes (HLMs) (Sigma-Aldrich, St. Louis, MO, USA). The t1/2 values and intrinsic clearances (CLint) were calculated with IS by using the protocols and formulas proposed by Obach [38]. […] VL was used as the reference unstable drug.

[3] = Parallel artificial membrane permeability assay (PAMPA)
5-HT7 = target: 5-HT7; set-up: method as in PMID 30282913; settings: radioligand binding, average of at least two independent experiments; read-out: Ki 5-HT7 [3H]-5-CT; cited from earlier work
[4] = Model of excessive eating (palatable diet), 3-week administration; assay type: in vivo, male Wistar rats
Description: The experiments were carried out on male Wistar rats. Their initial body weight was 210–230 g. The animals were housed in pairs in plastic cages in constant temperature facilities exposed to a light–dark cycle; water and food were available ad libitum. The control and experimental groups consisted of eight animals each. All experiments were conducted according to the guidelines of the Animal Use and Care Committee of the Jagiellonian University and were approved for realization (2013 and 2015, Poland; Permissions No 136/2013 and 258/2015).
In order to determine the anorectic activity of KMP-10, its effect on caloric and water intake in the model of excessive eating was assessed. Male Wistar rats were housed in pairs. Two groups of 8 rats were fed diets consisting of milk chocolate with nuts, cheese, salted peanuts, and 7% condensed milk; these rats also had access to a standard feed (Labofeed B, Morawski Manufacturer Feed, Poland) and water ad libitum for 3 weeks. The palatable control group (palatable diet + vehicle) received vehicle (1% Tween 80, i.p.), while the palatable test group (palatable diet + KMP-10 5 mg) was intraperitoneally injected with KMP-10 at the dose 5 mg/kg b.w./day dissolved in 1% Tween 80. The intakes of food and water were evaluated daily. On the 22th day, 20 min after the i.p. administration of heparin 1000 units/rat and thiopental (70 mg/kg b.w.), blood, peritoneal fat pads, liver were collected from animals.
The palatable diet contained 100 g of peanuts—614 kcal; 100 mL of condensed milk—131 kcal; 100 g of milk chocolate with hazelnuts—[…]; and 100 g of cheese (Greek type)—270 kcal.
The spontaneous activity of rats was measured on the 1st, 14th and 20th day of the treatment with a special RFID-system—TraffiCage (TSE-Systems, Germany). The animals were subcutaneously implanted with transmitter identification (RFID), which enabled the presence and time spent in different areas of the cage to be counted; the data were then grouped in a special computer program.
To determine the glucose or cholesterol or triglyceride levels in blood, standard enzymatic and spectrophotometric tests (Biomaxima S.A. Lublin, Poland) were used. The substrate was decomposed with enzymes that were appropriate for the relevant product, which was converted to a colored compound. Coloration was proportional to the concentration. The absorbance was measured at a wavelength of 500 nm.

5-HT6 = target: 5-HT6; set-up: method as in PMID 30282913; settings: radioligand binding, average of at least two independent experiments; read-out: Ki 5-HT6 [3H]-LSD; cited from earlier work
[5] = 5 mg/kg b.w., vs group fed the palatable feed
[6] = model of excessive eating, 5 mg/kg b.w./day i.p.
[7] = palatable diet, 5 mg/kg b.w./day i.p., 3 weeks, vs obesity control group

CN1CCN(c2nc(N)nc(CN3C(=O)NC(C)(c4ccc5ccccc5c4)C3=O)n2)CC1 (centres unmarked) [KMP-10, 3-((4-amino-6-(4-methylpiperazin-1-yl)-1,3,5-triazin-2-yl)methyl)-5-methyl-5-(naphthalen-2-yl)imidazolidine-2,4-dione]
Ki (D2): 4.25 µM
Influence on CYP2D6 (CYP2D6): almost no influence
QPlogBB [1]: −0.92
Metabolic Pathway, metabolite M1 ([2]; HLMs, 120 min incubation): demethylation
Metabolic Pathway, metabolite M2 ([2]; HLMs, 120 min incubation): hydroxylation
Metabolic Pathway, metabolite M3 ([2]; HLMs, 120 min incubation): demethylation and hydroxylation
Metabolic Pathway, metabolite M4 ([2]; HLMs, 120 min incubation): hydroxylation and dehydrogenation
Intrinsic Clearance CLint ([2]; HLMs, reactions terminated at 5, 15, 30 and 45 min): 3.74 mL/min/kg
t1/2, fold longer than verapamil ([2]; HLMs, vs unstable reference verapamil): ~ 8 fold
CLint scaled ([2]; human, liver microsomes): 3.74 mL/min/kg
half-life ([2]; human, liver microsomes, Half-Life t1/2, HLMs, reactions terminated at 5, 15, 30 and 45 min): 239 min
half-life ([2]; human, liver microsomes, t1/2 in vitro, HLMs, as restated in comparison to SUVN-502): > 180 min
Papp at 5 h, 200 µM ([3]; PAMPA, pH 7.4): 3.76 ± 0.76 ×10⁻⁶ cm/s
PAMPA permeability, fold weaker than caffeine ([3]; vs caffeine): ~ 4 fold and 4 fold
Ki (5-HT7): 514 nM
HDL cholesterol [4, 5]: significantly increased; also recorded: significant increase
Total cholesterol in blood [4, 5]: significantly decreased
Plasma glucose [4, 6]: did not reduce
Plasma triglyceride [4, 6]: did not reduce
Amount of calories consumed [4, 7]: significantly reduced
Water intake [4, 7]: but not water intake
Amount of peritoneal fat ([4]; three-week chronic treatment, 5 mg/kg b.w./day i.p.): did not reduce
Ki (5-HT6): 87 nM
